These results are taken from patent publication US11702418B2, “SOS1 inhibitors” (priority 2019, dated 2023).

For one test, the system named is pERK in MKN1 cells. The experiment in a line: cells. Format: cell-based. To be noted: Homo sapiens, MKN-1, pERK inhibition, In-Cell Western; MKN1 or H358 cells (Table 24 does not say which); 0.5-1 hour incubation; read-out: IC50.
The target of test [1] is recombinant human SOS1 polypeptide (amino acids 560-1049) (Homo sapiens (Human), UniProt Q07889). Description: biochemical. The format is binding. Particulars: HTRF displacement, Cy5 labelled tracer, Morrison equation for competitive binding; read-out: Ki, Inhibition of Labeled Tracer Binding to SOS1. (In general: In TR-FRET formats the signal depends on donor and acceptor labels being close together.)
Sequence of recombinant human SOS1 polypeptide (amino acids 560-1049) (Q07889 560-1049): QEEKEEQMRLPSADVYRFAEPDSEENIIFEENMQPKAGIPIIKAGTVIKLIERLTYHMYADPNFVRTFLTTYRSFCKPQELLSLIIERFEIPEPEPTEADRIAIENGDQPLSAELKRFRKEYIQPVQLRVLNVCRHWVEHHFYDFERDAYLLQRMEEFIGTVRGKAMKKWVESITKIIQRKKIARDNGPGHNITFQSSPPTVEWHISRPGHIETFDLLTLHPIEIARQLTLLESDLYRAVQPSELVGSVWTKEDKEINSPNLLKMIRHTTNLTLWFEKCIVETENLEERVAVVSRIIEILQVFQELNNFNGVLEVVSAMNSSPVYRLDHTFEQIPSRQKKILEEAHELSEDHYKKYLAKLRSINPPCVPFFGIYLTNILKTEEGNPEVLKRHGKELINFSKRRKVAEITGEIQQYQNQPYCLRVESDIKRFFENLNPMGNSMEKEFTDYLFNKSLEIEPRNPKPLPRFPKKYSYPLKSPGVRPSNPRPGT

Test [2] has as its system pERK in NCI-H1435 cells (NF-1 mutant). Description: pERK inhibition in NF-1 mutant NCI-H1435 cells (Example F). Particulars: NCI-H1435, 1 h, read-out: IC50, pERK inhibition. The format is cell-based.
Procedure: (§2) The formaldehyde was discarded from the plates and 150 μL of ice-cold methanol was added to permeabilize the cells for 10 minutes at −20° C. The methanol was discarded from each of the plates and any liquid remaining in the plate by tapping the plate against paper towels. […] The plates were incubated overnight at 4° C. on a shaker.
(§3) On Assay day 2, the primary antibody solution was removed. […] The secondary antibody solution as removed and each plate was washed with PBST 3× times. Any liquid remaining was discarded and the plate was imaged using the Licor Odyssey machine according to the manufacturer's instruction, using a set focus length at 3 mm and both 800 nm and 700 nm filters. The GAPDH normalized scan values for each well were divided by the average of vehicle wells to get the % of pERK inhibition. The IC50 values were then calculated with the Graph pad Prism software.
In test [3] the test system is pERK in RL95-2 cells (SOS1 N233Y). The experiment in a line: pERK inhibition in SOS1 N233Y mutant RL95-2 cells (Example E). The format is cell-based. Particulars: Homo sapiens, RL95-2 cell line, 1 hour with compound. The source says:
(§1) Three cell lines harboring SOS1 N233Y activation mutations, LXF289 (DSMZ, Leibniz Institute, Germany) RL95-2 (ATCC CRL-1671); and OCI AML-5 (DSMZ, Leibniz Institute, Germany) were used in the studies.

Test [4] concerns pERK in LXF289 cells (SOS1 N233Y). The experiment in a line: pERK inhibition in SOS1 N233Y mutant LXF289 cells (Example E). The format is cell-based. To be noted: Homo sapiens, LXF-289, LXF289 cell line, 1 hour with compound.
Excerpt: as §1

Test [5] deals with pERK in OCI AML-5 cells (SOS1 N233Y). The experiment in a line: pERK inhibition in SOS1 N233Y mutant OCI AML-5 cells (Example E). Format: cell-based. To be noted: Homo sapiens, OCI AML-5 cell line, 1 hour with compound.
Excerpt: as §1

Test [6] has as its system pERK in Kasuma-1 (Kasumi) cells (NF-1 mutant). Description: pERK inhibition in NF-1 mutant Kasumi cells (Example F). The format is cell-based. To be noted: 1 h, read-out: IC50, pERK inhibition.
Procedure: as §2, §3

For `Cc1c([C@@H](C)Nc2nnc(C)c3ccc(N4CCN(C(=O)C5COC5)CC4)cc23)cccc1C(F)(F)F` [Example 11-1, (R)-(4-(1-methyl-4-((1-(2-methyl-3-(trifluoromethyl)phenyl)ethyl)amino)phthalazin-6-yl)piperazin-1-yl)(oxetan-3-yl)methanone], the IC50 – broadly, the concentration that gives 50% inhibition – with pERK in MKN1 cells worked out at 10 nM; in test [2] it was 6 nM. The Ki (as a rule, the dissociation constant of the complex between target and ligand, obtained from inhibition or displacement) in test [1] was 0.01 nM.
Regarding `CNC1CCN(c2ccc3c(C)nnc(N[C@H](C)c4cccc(C(F)(F)F)c4C)c3c2)CC1` [Example 10-7, (R)-4-methyl-N-(1-(2-methyl-3-(trifluoromethyl)phenyl)ethyl)-7-(4-(methylamino)piperidin-1-yl)phthalazin-1-amine], the IC50 in the test with pERK in MKN1 cells came to 22 nM; in test [2], 87 nM. The Ki in test [1] was 0.07 nM.
In the case of `Cc1c([C@@H](C)Nc2nnc(C)c3ccc(N4CCn5nccc5C4)cc23)cccc1C(F)(F)F` [Example 6-10, (R)-7-(6,7-dihydropyrazolo[1,5-a]pyrazin-5(4H)-yl)-4-methyl-N-(1-(2-methyl-3-(trifluoromethyl)phenyl)ethyl)phthalazin-1-amine], the IC50 in test [3] was determined as 214 nM; in the test with pERK in MKN1 cells it was 271 nM; in test [4], 294 nM; in test [5], 333 nM; in test [6], 902 nM; in test [2] it was 542 nM. Further, the Ki in test [1] is less than 0.01 nM.
In the case of `Cc1c([C@@H](C)Nc2nnc(C)c3ccc(N4CCN(C(=O)[C@@H]5CCOC5)CC4)cc23)cccc1C(F)(F)F` [Example 11-4, (4-(1-methyl-4-(((R)-1-(2-methyl-3-(trifluoromethyl)phenyl)ethyl)amino)phthalazin-6-yl)piperazin-1-yl)((R)-tetrahydrofuran-3-yl)methanone], the values for the IC50 (in the test on pERK in MKN1 cells; in test [2]) were 25 nM and 19 nM, respectively. Further, in test [1], the inhibitory constant (Ki) was 0.01 nM.
For the compound `Cc1c([C@@H](C)Nc2nnc(C)c3ccc(N4CCN(C(=O)C5(C(F)(F)F)CC5)CC4)cc23)cccc1C(F)(F)F` [Example 11-3, (R)-(4-(1-methyl-4-((1-(2-methyl-3-(trifluoromethyl)phenyl)ethyl)amino)phthalazin-6-yl)piperazin-1-yl)(1-(trifluoromethyl)cyclopropyl)methanone], the concentration for half-maximal inhibition (IC50) in the test with pERK in MKN1 cells was found to be 48 nM; in test [2], 62 nM. Further, the Ki in test [1] was less than 0.01 nM.
In the case of `Cc1c([C@@H](C)Nc2nnc(C)c3ccc(N4CCC(C)(N)CC4)cc23)cccc1C(F)(F)F` [Example 10-9, (R)-7-(4-amino-4-methylpiperidin-1-yl)-4-methyl-N-(1-(2-methyl-3-(trifluoromethyl)phenyl)ethyl)phthalazin-1-amine], the IC50 amounted to 54 nM with pERK in MKN1 cells and 152 nM in test [2]. Also, the Ki in test [1] amounted to 0.05 nM.
In the case of `Cc1nnc(N[C@H](C)c2cc(N)cc(C(F)(F)F)c2)c2cc(N3CCOCC3)ccc12` [Example 6-5, (R)-N-(1-(3-amino-5-(trifluoromethyl)phenyl)ethyl)-4-methyl-7-morpholinophthalazin-1-amine], the IC50 was determined as 10 nM in the test with pERK in MKN1 cells and 9 nM in test [2]. Further, in test [1], the inhibition constant (Ki) turned out to be 0.12 nM.
In the case of `Cc1c([C@@H](C)Nc2nnc(C)c3ccc(N4CCN(c5cnn(C)c5)CC4)cc23)cccc1C(F)(F)F` [Example 10-10, (R)-4-methyl-7-(4-(1-methyl-1H-pyrazol-4-yl)piperazin-1-yl)-N-(1-(2-methyl-3-(trifluoromethyl)phenyl)ethyl)phthalazin-1-amine], the IC50 with pERK in MKN1 cells turned out to be 17 nM; in test [2], 15 nM. Further, in test [1], the Ki stood at 0.01 nM.
Take `Cc1c(C(F)F)cccc1[C@@H](C)Nc1nnc(C)c2ccc(N3CCNCC3)cc12` [Example 10-4, (R)-N-(1-(3-(difluoromethyl)-2-methylphenyl)ethyl)-4-methyl-7-(piperazin-1-yl)phthalazin-1-amine]: the IC50 with pERK in MKN1 cells turned out to be 14 nM; in test [2], 33 nM. The Ki in test [1] came out at 0.08 nM.
As to `CNCc1c(F)cccc1-c1ccc([C@@H](C)Nc2nnc(C)c3ccc(N4CCOCC4)cc23)s1` [Example 6-6, (R)-N-(1-(5-(3-fluoro-2-((methylamino)methyl)phenyl)thiophen-2-yl)ethyl)-4-methyl-7-morpholinophthalazin-1-amine], the figures for the IC50 (in the test on pERK in MKN1 cells; in test [2]) were 40 nM and 29 nM, respectively. The Ki in test [1] was 0.11 nM.
Turning to `CNCc1ccccc1-c1ccc([C@@H](C)Nc2nnc(C)c3ccc(N4CCOCC4)cc23)s1` [Example 6-3, (R)-4-methyl-N-(1-(5-(2-((methylamino)methyl)phenyl)thiophen-2-yl)ethyl)-7-morpholinophthalazin-1-amine], the figures for the IC50 (in the test on pERK in MKN1 cells; in test [2]) were 12 nM and 25 nM, respectively. Also, the Ki in test [1] was found to be 0.02 nM.
As for `Cc1c([C@@H](C)Nc2nnc(C)c3ccc(N4CCN(C(=O)C5CC5)CC4)cc23)cccc1C(F)(F)F` [Example 6-11, (R)-cyclopropyl(4-(1-methyl-4-((1-(2-methyl-3-(trifluoromethyl)phenyl)ethyl)amino)phthalazin-6-yl)piperazin-1-yl)methanone], the IC50 in test [3] stood at 20 nM; with pERK in MKN1 cells, 31 nM; in test [4] it was 41 nM; in test [5] it was 32 nM; in test [6] it was 97 nM; in test [2], 65 nM. Moreover, the Ki in test [1] is 9.1 nM.
For `Cc1c([C@@H](C)Nc2nnc(C)c3ccc(OC4CNC4)cc23)cccc1C(F)(F)F` [Example 7-4, (R)-7-(azetidin-3-yloxy)-4-methyl-N-(1-(2-methyl-3-(trifluoromethyl)phenyl)ethyl)phthalazin-1-amine], the results for the IC50 (in the test on pERK in MKN1 cells; in test [2]) were 14 nM and 83 nM, respectively. Also, the Ki in test [1] is 0.47 nM.
In the case of `Cc1c([C@@H](C)Nc2nnc(C)c3ccc(N4CCN(C(=O)C5CCOCC5)CC4)cc23)cccc1C(F)(F)F` [Example 11-2, (R)-(4-(1-methyl-4-((1-(2-methyl-3-(trifluoromethyl)phenyl)ethyl)amino)phthalazin-6-yl)piperazin-1-yl)(tetrahydro-2H-pyran-4-yl)methanone], the IC50 in the test on pERK in MKN1 cells was 27 nM; in test [2], 17 nM. In test [1], the Ki was less than 0.01 nM.
In the case of `Cc1c([C@@H](C)Nc2nnc(C)c3ccc(N4CCC(N(C)C)CC4)cc23)cccc1C(F)(F)F` [Example 10-8, (R)-7-(4-(dimethylamino)piperidin-1-yl)-4-methyl-N-(1-(2-methyl-3-(trifluoromethyl)phenyl)ethyl)phthalazin-1-amine], the results for the IC50 (in the test with pERK in MKN1 cells; in test [2]) were 34 nM and 94 nM, respectively. For the same compound, in test [1], the Ki was found to be 0.09 nM.
`Cc1c([C@@H](C)Nc2nnc(C)c3ccc(N4CCOC[C@@H]4C)cc23)cccc1C(F)(F)F` [Example 10-6, 4-methyl-N-((R)-1-(2-methyl-3-(trifluoromethyl)phenyl)ethyl)-7-((S)-3-methylmorpholino)phthalazin-1-amine]: the values for the IC50 (in the test with pERK in MKN1 cells; in test [2]) were 21 nM and 75 nM, respectively. Also, the Ki in test [1] was found to be 0.64 nM.
For the compound `Cc1c([C@@H](C)Nc2nnc(C)c3ccc(O[C@H]4CCNC4)cc23)cccc1C(F)(F)F` [Example 7-3, 4-methyl-N-((R)-1-(2-methyl-3-(trifluoromethyl)phenyl)ethyl)-7-(((S)-pyrrolidin-3-yl)oxy)phthalazin-1-amine], the IC50 with pERK in MKN1 cells came out at 28 nM; in test [2], 55 nM. Moreover, the Ki in test [1] was 0.32 nM.
